Reference: ChEMBL document CHEMBL2163286, “1,2,3,4-tetrahydroquinoline-based selective human neuronal nitric oxide synthase (nNOS) inhibitors: lead optimization studies resulting in the identification of N-(1-(2-(methylamino)ethyl)-1,2,3,4-tetrahydroquinolin-6-yl)thiophene-2-carboximidamide as a preclinical development candidate” (J Med Chem, 2012)

Key:
[1] = target: Voltage-gated inwardly rectifying potassium channel KCNH2 (Homo sapiens, UniProt Q12809); assay: Inhibition of human ERG expressed in HEK293 cells at -80 mV holding potential assessed as reduction in tail current amplitude by conventional patch clamp assay; format: cell-based
Chain of Voltage-gated inwardly rectifying potassium channel KCNH2 (Q12809 whole entry): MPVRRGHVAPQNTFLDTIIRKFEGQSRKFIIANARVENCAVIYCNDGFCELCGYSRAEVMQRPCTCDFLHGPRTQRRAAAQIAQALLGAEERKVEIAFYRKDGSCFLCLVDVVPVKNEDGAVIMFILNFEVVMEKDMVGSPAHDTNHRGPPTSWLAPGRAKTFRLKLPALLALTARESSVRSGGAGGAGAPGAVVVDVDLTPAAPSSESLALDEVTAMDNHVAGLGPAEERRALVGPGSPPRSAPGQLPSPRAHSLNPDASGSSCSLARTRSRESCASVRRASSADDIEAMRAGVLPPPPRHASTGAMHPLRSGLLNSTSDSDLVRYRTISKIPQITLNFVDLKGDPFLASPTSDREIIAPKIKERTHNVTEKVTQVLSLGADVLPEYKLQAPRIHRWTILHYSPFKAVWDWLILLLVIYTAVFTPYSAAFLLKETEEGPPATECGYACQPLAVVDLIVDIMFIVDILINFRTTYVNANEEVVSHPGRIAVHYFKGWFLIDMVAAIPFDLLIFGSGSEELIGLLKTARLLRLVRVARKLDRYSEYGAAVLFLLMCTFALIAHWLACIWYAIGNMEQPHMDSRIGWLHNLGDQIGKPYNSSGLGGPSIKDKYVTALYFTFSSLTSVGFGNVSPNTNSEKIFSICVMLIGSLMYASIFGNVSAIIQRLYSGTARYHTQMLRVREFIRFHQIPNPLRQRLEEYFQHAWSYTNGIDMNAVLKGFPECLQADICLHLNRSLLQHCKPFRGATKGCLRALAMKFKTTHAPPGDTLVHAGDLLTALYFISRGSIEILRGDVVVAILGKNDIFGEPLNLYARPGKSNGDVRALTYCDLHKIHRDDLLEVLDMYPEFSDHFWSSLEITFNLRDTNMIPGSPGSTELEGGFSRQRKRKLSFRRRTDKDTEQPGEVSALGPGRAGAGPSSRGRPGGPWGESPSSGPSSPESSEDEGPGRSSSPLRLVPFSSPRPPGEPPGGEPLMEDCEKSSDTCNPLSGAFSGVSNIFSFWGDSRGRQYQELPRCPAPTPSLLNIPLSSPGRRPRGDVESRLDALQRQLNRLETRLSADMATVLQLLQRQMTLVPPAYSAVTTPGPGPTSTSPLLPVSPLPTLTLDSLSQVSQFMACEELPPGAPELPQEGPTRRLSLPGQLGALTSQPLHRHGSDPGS

[2] = target: Nitric oxide synthase, inducible (Homo sapiens, UniProt P35228); assay: Inhibition of human recombinant iNOS expressed in Sf9 cells assessed as reduction in conversion of [3H]L-arginine to [3H]L-citrulline preincubated for 15 mins by radiometric method
Chain of Nitric oxide synthase, inducible (P35228 whole entry): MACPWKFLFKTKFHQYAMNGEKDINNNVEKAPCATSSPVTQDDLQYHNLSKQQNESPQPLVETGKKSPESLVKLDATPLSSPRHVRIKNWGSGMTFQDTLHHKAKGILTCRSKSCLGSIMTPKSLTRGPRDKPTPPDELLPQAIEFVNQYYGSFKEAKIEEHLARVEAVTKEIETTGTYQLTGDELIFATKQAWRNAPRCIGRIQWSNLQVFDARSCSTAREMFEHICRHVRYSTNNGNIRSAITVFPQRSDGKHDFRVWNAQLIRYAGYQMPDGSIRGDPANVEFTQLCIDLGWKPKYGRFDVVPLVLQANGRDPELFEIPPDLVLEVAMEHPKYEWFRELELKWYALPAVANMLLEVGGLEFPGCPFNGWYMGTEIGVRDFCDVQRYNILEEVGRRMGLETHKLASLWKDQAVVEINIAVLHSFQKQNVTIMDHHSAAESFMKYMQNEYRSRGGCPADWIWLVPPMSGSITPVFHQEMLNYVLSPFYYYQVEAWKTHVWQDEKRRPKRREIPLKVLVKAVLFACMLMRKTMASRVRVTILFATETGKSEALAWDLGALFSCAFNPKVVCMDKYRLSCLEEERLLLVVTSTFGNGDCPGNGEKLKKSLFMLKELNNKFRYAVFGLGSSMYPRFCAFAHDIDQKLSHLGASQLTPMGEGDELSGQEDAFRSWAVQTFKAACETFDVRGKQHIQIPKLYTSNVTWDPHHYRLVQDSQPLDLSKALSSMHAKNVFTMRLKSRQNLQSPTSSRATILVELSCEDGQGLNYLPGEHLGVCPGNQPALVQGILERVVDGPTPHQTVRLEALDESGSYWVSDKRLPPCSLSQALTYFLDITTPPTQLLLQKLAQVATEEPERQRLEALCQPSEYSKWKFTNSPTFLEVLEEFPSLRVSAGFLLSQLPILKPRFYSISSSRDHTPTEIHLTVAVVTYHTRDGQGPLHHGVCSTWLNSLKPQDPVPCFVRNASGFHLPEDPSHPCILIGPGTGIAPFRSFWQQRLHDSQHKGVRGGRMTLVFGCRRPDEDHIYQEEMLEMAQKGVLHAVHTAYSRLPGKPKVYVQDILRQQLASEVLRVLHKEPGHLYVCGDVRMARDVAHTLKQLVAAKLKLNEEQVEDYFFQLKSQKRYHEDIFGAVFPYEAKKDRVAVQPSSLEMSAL

[3] = target: T1, Nitric oxide synthase 3 (Homo sapiens, UniProt P29474); assay: Inhibition of human eNOS expressed in Sf9 cells assessed as reduction in conversion of [3H]L-arginine to [3H]L-citrulline preincubated for 15 mins by radiometric method
T1 sequence (P29474 whole entry): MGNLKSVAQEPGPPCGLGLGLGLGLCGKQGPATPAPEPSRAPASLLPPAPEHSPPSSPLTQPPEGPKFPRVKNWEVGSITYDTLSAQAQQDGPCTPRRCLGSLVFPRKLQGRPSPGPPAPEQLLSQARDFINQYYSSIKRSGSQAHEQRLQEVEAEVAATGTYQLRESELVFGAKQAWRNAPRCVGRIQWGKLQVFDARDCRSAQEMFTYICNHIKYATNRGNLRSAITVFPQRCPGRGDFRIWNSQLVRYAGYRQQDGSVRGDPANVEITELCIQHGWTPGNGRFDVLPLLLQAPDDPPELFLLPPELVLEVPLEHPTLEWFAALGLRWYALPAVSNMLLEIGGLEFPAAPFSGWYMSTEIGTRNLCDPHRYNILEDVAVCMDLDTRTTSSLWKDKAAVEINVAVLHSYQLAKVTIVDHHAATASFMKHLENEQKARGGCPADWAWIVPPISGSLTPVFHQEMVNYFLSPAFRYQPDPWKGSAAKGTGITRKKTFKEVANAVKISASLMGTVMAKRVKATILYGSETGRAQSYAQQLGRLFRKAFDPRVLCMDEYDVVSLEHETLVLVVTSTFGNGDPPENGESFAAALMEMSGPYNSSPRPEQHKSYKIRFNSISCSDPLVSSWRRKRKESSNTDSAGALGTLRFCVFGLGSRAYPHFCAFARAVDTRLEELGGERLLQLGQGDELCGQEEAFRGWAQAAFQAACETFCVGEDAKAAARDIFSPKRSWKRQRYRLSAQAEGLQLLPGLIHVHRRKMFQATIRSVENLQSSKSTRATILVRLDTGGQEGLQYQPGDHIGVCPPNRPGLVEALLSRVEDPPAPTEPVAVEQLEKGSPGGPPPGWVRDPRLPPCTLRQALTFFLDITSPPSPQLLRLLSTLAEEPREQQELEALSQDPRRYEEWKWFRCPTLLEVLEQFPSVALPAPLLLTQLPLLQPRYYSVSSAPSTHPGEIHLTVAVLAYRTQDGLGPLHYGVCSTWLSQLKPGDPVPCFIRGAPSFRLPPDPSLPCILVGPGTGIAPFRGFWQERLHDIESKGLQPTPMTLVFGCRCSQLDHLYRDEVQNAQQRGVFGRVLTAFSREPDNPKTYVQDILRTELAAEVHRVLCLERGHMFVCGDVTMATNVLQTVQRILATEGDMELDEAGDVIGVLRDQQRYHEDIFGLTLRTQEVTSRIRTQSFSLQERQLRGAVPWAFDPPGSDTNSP

[4] = target: Nitric oxide synthase 1 (Homo sapiens, UniProt P29475); assay: Inhibition of human nNOS expressed in Sf9 cells assessed as reduction in conversion of [3H]L-arginine to [3H]L-citrulline preincubated for 15 mins by radiometric method
Chain of Nitric oxide synthase 1 (P29475 whole entry): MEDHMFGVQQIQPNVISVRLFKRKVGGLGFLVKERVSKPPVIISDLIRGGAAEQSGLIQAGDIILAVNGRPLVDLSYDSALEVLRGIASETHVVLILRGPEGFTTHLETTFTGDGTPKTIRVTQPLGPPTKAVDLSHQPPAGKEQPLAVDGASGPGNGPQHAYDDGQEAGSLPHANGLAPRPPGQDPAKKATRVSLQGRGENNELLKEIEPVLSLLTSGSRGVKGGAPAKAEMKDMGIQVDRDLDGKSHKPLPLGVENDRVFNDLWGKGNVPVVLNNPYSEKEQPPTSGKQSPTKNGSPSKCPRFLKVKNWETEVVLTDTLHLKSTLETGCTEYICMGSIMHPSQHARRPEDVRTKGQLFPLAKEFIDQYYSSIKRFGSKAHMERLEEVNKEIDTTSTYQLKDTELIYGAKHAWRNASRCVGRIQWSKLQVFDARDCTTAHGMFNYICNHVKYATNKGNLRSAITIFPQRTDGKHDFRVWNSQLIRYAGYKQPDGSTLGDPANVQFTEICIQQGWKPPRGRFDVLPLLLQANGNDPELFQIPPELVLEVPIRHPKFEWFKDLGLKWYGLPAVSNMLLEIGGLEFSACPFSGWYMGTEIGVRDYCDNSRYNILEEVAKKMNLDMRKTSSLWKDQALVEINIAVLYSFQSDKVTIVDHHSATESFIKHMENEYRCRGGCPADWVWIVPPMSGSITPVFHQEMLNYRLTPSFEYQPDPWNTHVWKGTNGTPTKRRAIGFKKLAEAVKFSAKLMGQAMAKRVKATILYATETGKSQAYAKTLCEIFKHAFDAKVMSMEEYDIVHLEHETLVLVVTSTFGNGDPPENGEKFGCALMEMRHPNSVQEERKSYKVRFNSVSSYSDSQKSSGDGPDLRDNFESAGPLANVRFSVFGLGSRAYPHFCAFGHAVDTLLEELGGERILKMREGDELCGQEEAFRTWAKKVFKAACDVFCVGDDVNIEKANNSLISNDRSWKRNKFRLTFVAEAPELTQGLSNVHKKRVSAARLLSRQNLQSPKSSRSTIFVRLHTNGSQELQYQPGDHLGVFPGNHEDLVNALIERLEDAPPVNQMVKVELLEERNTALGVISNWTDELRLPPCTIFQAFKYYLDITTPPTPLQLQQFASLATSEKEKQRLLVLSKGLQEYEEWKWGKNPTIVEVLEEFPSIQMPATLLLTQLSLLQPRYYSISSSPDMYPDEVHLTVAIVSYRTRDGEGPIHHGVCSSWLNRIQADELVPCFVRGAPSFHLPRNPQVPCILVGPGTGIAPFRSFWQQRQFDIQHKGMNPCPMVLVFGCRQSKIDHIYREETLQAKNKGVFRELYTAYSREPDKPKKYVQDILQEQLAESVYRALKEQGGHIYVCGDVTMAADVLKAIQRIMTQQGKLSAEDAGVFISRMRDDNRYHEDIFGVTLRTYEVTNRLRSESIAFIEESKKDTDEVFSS

Compound | IC50 [1] | IC50 [2] | IC50 [3] | IC50 [4]
N=C(Nc1ccc2c(c1)CCCN2CCNCCO)c1cccs1 | > 30 µM | 73 µM | 32.9 µM | 0.115 µM
CCNCCN1CCCc2cc(NC(=N)c3cccs3)ccc21 | > 30 µM | > 100 µM | 46.5 µM | 0.139 µM
CC(C)NCCN1CCCc2cc(NC(=N)c3cccs3)ccc21 | 27.5 µM | 89.4 µM |  | 0.267 µM
CN(CCO)CCN1CCCc2cc(NC(=N)c3cccs3)ccc21 |  | > 100 µM |  | 0.133 µM
CNCCCN1CCCc2cc(NC(=N)c3cccs3)ccc21 | > 30 µM | > 100 µM |  | 
